From patent US8791123B2, “Substituted pyrazolo[1,5-a]pyrimidine compounds as Trk kinase inhibitors” (Array Biopharma, Inc., priority 2009, dated 2014)
Like-named read-outs stand apart in the source and are kept apart here.

What was measured:
Human Jak2 kinase domain = Human Jak2 kinase domain (Homo sapiens (Human), UniProt O60674); assay: Jak2 Inhibition Assay (Omnia kinase assay); type: biochemical; conditions: read-out: Jak2 Enzyme IC50
[1] = target: TrkA (histidine-tagged recombinant human TrkA, cytoplasmic domain) (Homo sapiens (Human), UniProt P04629); assay: TrkA ELISA Assay; type: biochemical; conditions: Table 1; ELISA, 500 μM ATP; read-out: TrkA Enzyme IC50
In short: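 His-tagged human TrkA cytoplasmic domain phosphorylated poly(Glu,Ala,Tyr 6:3:1) coated at 0.025 mg/mL, with inhibitors present. Phosphotyrosine was detected with HRP-conjugated PY20 antibody (0.2 μg/mL) and TMB, read as absorbance at 450 nm after phosphoric acid stop.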

[2] = Table 1, 500 μM ATP, >1000 nM when >50% inhibition not observed at 1000 nM

Chain of TrkA (histidine-tagged recombinant human TrkA, cytoplasmic domain) (P04629 440-796): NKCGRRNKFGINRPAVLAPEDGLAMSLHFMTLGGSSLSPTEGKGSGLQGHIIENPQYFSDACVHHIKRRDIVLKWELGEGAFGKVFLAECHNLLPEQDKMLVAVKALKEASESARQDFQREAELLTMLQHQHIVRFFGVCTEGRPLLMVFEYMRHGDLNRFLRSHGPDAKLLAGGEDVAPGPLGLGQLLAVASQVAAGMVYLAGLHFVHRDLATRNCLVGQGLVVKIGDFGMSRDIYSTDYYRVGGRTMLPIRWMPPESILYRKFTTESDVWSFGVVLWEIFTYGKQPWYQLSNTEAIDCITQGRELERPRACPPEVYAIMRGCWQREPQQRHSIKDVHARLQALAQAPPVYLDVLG
Chain of Human Jak2 kinase domain (O60674 808-1132): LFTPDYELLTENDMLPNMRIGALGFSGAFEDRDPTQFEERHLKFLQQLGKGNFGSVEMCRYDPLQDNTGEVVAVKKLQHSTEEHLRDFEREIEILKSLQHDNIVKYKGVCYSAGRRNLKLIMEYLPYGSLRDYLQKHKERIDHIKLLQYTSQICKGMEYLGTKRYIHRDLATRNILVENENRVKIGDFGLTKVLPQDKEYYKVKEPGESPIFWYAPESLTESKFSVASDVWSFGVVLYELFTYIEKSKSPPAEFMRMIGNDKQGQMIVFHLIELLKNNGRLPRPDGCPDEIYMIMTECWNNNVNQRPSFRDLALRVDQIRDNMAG

Structure (SMILES) | IC50 (Human Jak2 kinase domain; [2]) | IC50 [1] | IC50 (Human Jak2 kinase domain)
COc1ncc(F)cc1[C@H]1CCCN1c1ccn2ncc(C(=O)NC3CCN(CCO)CC3)c2n1 [Example 159, (R)-5-(2-(5-fluoro-2-methoxypyridin-3-yl)pyrrolidin-1-yl)-N-(1-(2-hydroxyethyl)piperidin-4-yl)pyrazolo[1,5-a]pyrimidine-3-carboxamide] | > 1000 nM | 4.3 nM | 
O=C(c1cnn2ccc(N3CCC[C@@H]3c3cncc(F)c3)nc12)N1CC(CO)C1 [Example 127, (R)-(5-(2-(5-fluoropyridin-3-yl)pyrrolidin-1-yl)pyrazolo[1,5-a]pyrimidin-3-yl)(3-(hydroxymethyl)azetidin-1-yl)methanone] | > 1000 nM | 470 nM | 
O=C(NC1CC1)c1cnn2ccc(N3CCC[C@@H]3c3cc(F)ccc3OCCN3CCOCC3)nc12 [Example 87, (R)—N-cyclopropyl-5-(2-(5-fluoro-2-(2-morpholinoethoxy)phenyl)pyrrolidin-1-yl)pyrazolo[1,5-a]pyrimidine-3-carboxamide] | > 1000 nM | 16.1 nM | 
CNC(=O)c1cnn2ccc(N3C[C@@H](O)C[C@@H]3c3cccc(F)c3)nc12 [Example 218, 5-((2R,4S)-2-(3-fluorophenyl)-4-hydroxypyrrolidin-1-yl)-N-methylpyrazolo[1,5-a]pyrimidine-3-carboxamide] | > 1000 nM | 33.9 nM | 
CC(C)(C)NC(=O)c1cnn2ccc(N3CCC[C@@H]3c3cccc(F)c3)nc12 [Example 36, (R)—N-tert-butyl-5-(2-(3-fluorophenyl)pyrrolidin-1-yl)pyrazolo[1,5-a]pyrimidine-3-carboxamide] | > 1000 nM | 2.1 nM | 
COCCOc1cc(F)cc([C@H]2CCCN2c2ccn3ncc(C(N)=O)c3n2)c1 [Example 78, (R)-5-(2-(3-fluoro-5-(2-methoxyethoxy)phenyl)pyrrolidin-1-yl)pyrazolo[1,5-a]pyrimidine-3-carboxamide] | > 1000 nM | 34.9 nM | 
CC(C)(O)CNC(=O)c1cnn2ccc(N3CCC[C@@H]3c3cncc(F)c3)nc12 [Example 111, (R)-5-(2-(5-fluoropyridin-3-yl)pyrrolidin-1-yl)-N-(2-hydroxy-2-methylpropyl)pyrazolo[1,5-a]pyrimidine-3-carboxamide] | > 1000 nM | 37.8 nM | 
C[C@@H](O)[C@H](CO)NC(=O)c1cnn2ccc(N3CCC[C@@H]3c3cc(F)ccc3F)nc12 [Example 174, 5-((R)-2-(2,5-difluorophenyl)pyrrolidin-1-yl)-N-((2S,3R)-1,3-dihydroxybutan-2-yl)pyrazolo[1,5-a]pyrimidine-3-carboxamide] | > 1000 nM | 16.3 nM | 
CC(C)NC(=O)c1cnn2ccc(N3CCC[C@@H]3c3cc(F)cn(C)c3=O)nc12 [Example 227, (R)-5-(2-(5-fluoro-1-methyl-2-oxo-1,2-dihydropyridin-3-yl)pyrrolidin-1-yl)-N-isopropylpyrazolo[1,5-a]pyrimidine-3-carboxamide] | 446 nM | 12.3 nM | 
Cc1ncc(F)cc1[C@H]1CCCN1c1ccn2ncc(C(=O)N[C@H]3CC[C@H](O)C3)c2n1 [Example 196, 5-((R)-2-(5-fluoro-2-methylpyridin-3-yl)pyrrolidin-1-yl)-N-((1S,3S)-3-hydroxycyclopentyl)pyrazolo[1,5-a]pyrimidine-3-carboxamide] | > 1000 nM | 6.8 nM | 
CNC(=O)c1cnn2ccc(N3CCC[C@@H]3c3cc(F)cnc3C)nc12 [Example 186, (R)-5-(2-(5-fluoro-2-methylpyridin-3-yl)pyrrolidin-1-yl)-N-methylpyrazolo[1,5-a]pyrimidine-3-carboxamide] | > 1000 nM | 57.1 nM | 
CN1CCN(CCNC(=O)c2cnn3ccc(N4CCC[C@@H]4c4cc(F)ccc4F)nc23)CC1 [Example 171, 5-((R)-2-(2,5-difluorophenyl)pyrrolidin-1-yl)-N-(2-(4-methylpiperazin-1-yl)ethyl)pyrazolo[1,5-a]pyrimidine-3-carboxamide] | > 1000 nM | 4.7 nM | 
C[C@H](NC(=O)c1cnn2ccc(N3[C@@H](c4cncc(F)c4)CC[C@@]3(C)CO)nc12)C(F)(F)F [Example 220, 5-((2S,5R)-5-(5-fluoropyridin-3-yl)-2-(hydroxymethyl)-2-methylpyrrolidin-1-yl)-N—((S)-1,1,1-trifluoropropan-2-yl)pyrazolo[1,5-a]pyrimidine-3-carboxamide] |  | 110 nM | > 1000 nM
COc1ncc(F)cc1[C@H]1CCCN1c1ccn2ncc(C(=O)Nc3ccc(=O)[nH]c3)c2n1 [Example 161, (R)-5-(2-(5-fluoro-2-methoxypyridin-3-yl)pyrrolidin-1-yl)-N-(6-oxo-1,6-dihydropyridin-3-yl)pyrazolo[1,5-a]pyrimidine-3-carboxamide] | > 1000 nM | 3 nM | 
COCC(C)NC(=O)c1cnn2ccc(N3CCCC3c3cncc(F)c3)nc12 [Example 118, 5-((R)-2-(5-fluoropyridin-3-yl)pyrrolidin-1-yl)-N-(1-methoxypropan-2-yl)pyrazolo[1,5-a]pyrimidine-3-carboxamide] | > 1000 nM | 22.5 nM | 
O=C(N[C@H]1CCC[C@H]1O)c1cnn2ccc(N3CCC[C@@H]3c3cncc(F)c3)nc12 [Example 104, 5-((R)-2-(5-fluoropyridin-3-yl)pyrrolidin-1-yl)-N-((1S,2R)-2-hydroxycyclopentyl)pyrazolo[1,5-a]pyrimidine-3-carboxamide] | > 1000 nM | 83.1 nM | 
CC1(O)CN(C(=O)c2cnn3ccc(N4CCC[C@@H]4c4cncc(F)c4)nc23)C1 [Example 92, (R)-(5-(2-(5-fluoropyridin-3-yl)pyrrolidin-1-yl)pyrazolo[1,5-a]pyrimidin-3-yl)(3-hydroxy-3-methylazetidin-1-yl)methanone] | > 1000 nM | 1010 nM | 
CC(C)(CN1CCOCC1)NC(=O)c1cnn2ccc(N3CCC[C@@H]3c3cc(F)ccc3F)nc12 [Example 9, (R)-5-(2-(2,5-difluorophenyl)pyrrolidin-1-yl)-N-(2-methyl-1-morpholinopropan-2-yl)pyrazolo[1,5-a]pyrimidine-3-carboxamide] | > 1000 nM | 3.45 nM | 
O=C(c1cnn2ccc(N3CCC[C@@H]3c3cncc(F)c3)nc12)N1CCC1 [Example 126, (R)-azetidin-1-yl(5-(2-(5-fluoropyridin-3-yl)pyrrolidin-1-yl)pyrazolo[1,5-a]pyrimidin-3-yl)methanone] | > 1000 nM | 218 nM | 

More lines, now with the values ahead:

IC50 (Human Jak2 kinase domain; [2]) | IC50 [1] | IC50 (Human Jak2 kinase domain) | Structure (SMILES)
> 1000 nM | 2.5 nM |  | CC[C@@H](CO)NC(=O)c1cnn2ccc(N3CCC[C@@H]3c3cc(F)ccc3F)nc12 [Example 178, 5-((R)-2-(2,5-difluorophenyl)pyrrolidin-1-yl)-N-((S)-1-hydroxybutan-2-yl)pyrazolo[1,5-a]pyrimidine-3-carboxamide]
 | 238 nM | > 1000 nM | O=C(O)CC1CCN(C(=O)c2cnn3ccc(N4CCC[C@@H]4c4cc(F)ccc4F)nc23)CC1 [Example 12, (R)-2-(1-(5-(2-(2,5-difluorophenyl)pyrrolidin-1-yl)pyrazolo[1,5-a]pyrimidine-3-carbonyl)piperidin-4-yl)acetic acid]
> 1000 nM | 0.8 nM |  | CC(C)(CF)NC(=O)c1cnn2ccc(N3CCC[C@@H]3c3cc(F)ccc3F)nc12 [Example 40, (R)-5-(2-(2,5-difluorophenyl)pyrrolidin-1-yl)-N-(1-fluoro-2-methylpropan-2-yl)pyrazolo[1,5-a]pyrimidine-3-carboxamide]
> 1000 nM | 1.3 nM |  | O=C(NC[C@@H](O)CO)c1cnn2ccc(N3CCC[C@@H]3c3cc(F)ccc3F)nc12 [Example 26, 5-((R)-2-(2,5-difluorophenyl)pyrrolidin-1-yl)-N—((R)-2,3-dihydroxypropyl)pyrazolo[1,5-a]pyrimidine-3-carboxamide]
> 1000 nM | 38.3 nM |  | O=C(c1cnn2ccc(N3CCC[C@@H]3c3cc(F)ccc3F)nc12)N1CC[C@H](O)C1 [Example 18, (5-((R)-2-(2,5-difluorophenyl)pyrrolidin-1-yl)pyrazolo[1,5-a]pyrimidin-3-yl)((S)-3-hydroxypyrrolidin-1-yl)methanone]
759 nM | 0.9 nM |  | O=C(N[C@H]1CC[C@H](O)C1)c1cnn2ccc(N3CCC[C@@H]3c3cc(F)ccc3F)nc12 [Example 169, 5-((R)-2-(2,5-difluorophenyl)pyrrolidin-1-yl)-N-((1S,3S)-3-hydroxycyclopentyl)pyrazolo[1,5-a]pyrimidine-3-carboxamide]
> 1000 nM | 1.1 nM |  | O=C(NCCO)c1cnn2ccc(N3CCCC3c3cc(F)ccc3F)nc12 (stereo not shown) [Example 165, 5-(2-(2,5-difluorophenyl)pyrrolidin-1-yl)-N-(2-hydroxyethyl)pyrazolo[1,5-a]pyrimidine-3-carboxamide]
> 1000 nM | 1.3 nM |  | O=C(NC[C@H](O)CO)c1cnn2ccc(N3CCC[C@@H]3c3cc(F)ccc3F)nc12 [Example 29, 5-((R)-2-(2,5-difluorophenyl)pyrrolidin-1-yl)-N—((S)-2,3-dihydroxypropyl)pyrazolo[1,5-a]pyrimidine-3-carboxamide]
> 1000 nM | 1.8 nM |  | C[C@@H](CO)NC(=O)c1cnn2ccc(N3CCC[C@@H]3c3cc(F)ccc3F)nc12 [Example 177, 5-((R)-2-(2,5-difluorophenyl)pyrrolidin-1-yl)-N-((S)-1-hydroxypropan-2-yl)pyrazolo[1,5-a]pyrimidine-3-carboxamide]
> 1000 nM | 2.2 nM |  | C[C@@H](O)CNC(=O)c1cnn2ccc(N3CCCC3c3cc(F)ccc3F)nc12 (stereo in doubt) [Example 167, 5-((R)-2-(2,5-difluorophenyl)pyrrolidin-1-yl)-N-(2-hydroxypropyl)pyrazolo[1,5-a]pyrimidine-3-carboxamide]
